Test results reported in patent US4304726A, “Process for the preparation of cholesterol derivatives” (The Green Cross Corporation, priority 1979, dated 1981).

Columns and labels:
[1] = Japanese Kokai No. 104,735/1978, cited from earlier work; for immunosuppressive effect: particularly cell-mediated
PHA reaction = test: PHA reaction, 50% inhibitory concentration (immunosuppressive action in vitro); type: cell-based; conditions: ester form as emulsion with polyoxyethylene-polyoxypropylene copolymer, salt form as aqueous solution; for IC50: read-out: Concentration for 50% inhibition
Description: In accordance with the PHA method by Cooparband et al. [The Journal of Immunology, 109, (1), 154 (1972)], the compounds of this invention were tested for the 50% inhibitory concentration in the PHA reaction. Also, the effect of IRA (Immunoregulatory α-globulin) obtained according to the method of Occhino et al. [The Journal of Immunology, 110, (3), 685 (1973)] was shown as comparative test data. Among these compounds, those of the ester form were used in emulsion employing a copolymer of polyoxyethylene-polyoxypropylene having molecular weight of 8350 as a surfactant, and those of the salt form were used as aqueous solutions.

[2] = system: carrageenin edema of hind footpad; test: Carrageenin hind footpad edema in rats (anti-inflammatory action); type: in vivo; conditions: 50 mg/kg intraperitoneally 1 h before carrageenin, 4 hours after inoculation
Description: Using rats, each of derivatives of 7-hydroxycholesterol and of 7-ketocholesterol shown in Table 2 was administered intraperitoneally to 5 rats of each group in a dose of 50 mg/kg (physiologically isotonic aqueous solution with a concentration of 2.0% by weight), and one hour after the administration, each 0.05 ml of 1% aqueous carrageenin solution as an inflammation-causing substance was subcutaneously inoculated at the hind footpad.
After 4 hours from the inoculation of carrageenin, the size of edema caused on the footpad was measured by means of a volume differential meter to compare with that of the control group which was given to the physiological sodium chloride aqueous solution.
The ester samples administered were in the form of emulsion employing a phospholipid as a surfactant, and the salt samples were in the form of physiologically isotonic solution.

rats = test: Acute toxicity test in rats; type: in vivo; conditions: intraperitoneal, 250, 500, 750 or 1000 mg/kg, 5-days' observation
Description: Acute toxicity tests were performed using rats, each group consisting of 5 rats each weighing approximately 200 g, on 7-ketocholesteryl hydrogen succinate, 7-ketocholesteryl hydrogen phthalate, sodium 7-ketocholesteryl succinate, ammonium 7-ketocholesteryl succinate, 7-hydroxycholesteryl hydrogen succinate, 7β-hydroxycholesteryl hydrogen phthalate, sodium 7-hydroxycholesteryl succinate, and sodium 7β-hydroxycholesteryl phthalate. Each of the compounds of salt type was made into a physiologically isotonic aqueous solution, and each of the compounds of ester type was dispersed with a surfactant and by ultrasonic wave treatment to give a uniform dispersion. Thereafter, each of them was administered intraperitoneally in an amount of 250 mg/kg, 500 mg/kg, 750 mg/kg, or 1000 mg/kg. After 5-days' observation, no rat died.

SMILES	anti-inflammatory effect [1]	immunosuppressive effect [1]	IC50 (PHA reaction) [µg/mL]	Swelling rate of edema ([2]; control 82, 50 mg/kg) [%]	death of rats (acute toxicity) (rats)	Swelling rate of edema ([2]; control 82) [%]	Concentration for 50% inhibition (PHA reaction) [µg/mL]
CC(C)CCC[C@@H](C)[C@H]1CC[C@H]2[C@@H]3C(O)C=C4C[C@@H](O)CC[C@]4(C)[C@H]3CC[C@]12C (stereo partly shown) [7-hydroxycholesterol]	effective	effective as immunosuppressive agent	–	–	–	–	–
CC(C)CCC[C@@H](C)[C@H]1CC[C@H]2[C@@H]3C(O)C=C4C[C@@H](OC(=O)CCC(=O)O)CC[C@]4(C)[C@H]3CC[C@]12C (stereo partly shown) [7-hydroxycholesteryl hydrogen succinate]	–	–	3	29	no rat died	–	–
CC(C)CCC[C@@H](C)[C@H]1CC[C@H]2[C@@H]3C(=O)C=C4C[C@@H](O)CC[C@]4(C)[C@H]3CC[C@]12C [7-ketocholesterol]	effective	effective as immunosuppressive agent	–	–	–	–	–
CC(C)CCC[C@@H](C)[C@H]1CC[C@H]2[C@@H]3C(=O)C=C4C[C@@H](OC(=O)c5ccccc5C(=O)O)CC[C@]4(C)[C@H]3CC[C@]12C [7-ketocholesteryl hydrogen phthalate]	–	–	4	–	no rat died	28	–
CC(C)CCC[C@@H](C)[C@H]1CC[C@H]2[C@@H]3C(=O)C=C4C[C@@H](OC(=O)CCC(=O)O)CC[C@]4(C)[C@H]3CC[C@]12C [7-ketocholesteryl hydrogen succinate]	–	–	4	–	no rat died	30	–
CC(C)CCC[C@@H](C)[C@H]1CC[C@H]2[C@@H]3[C@@H](O)C=C4C[C@@H](OC(=O)c5ccccc5C(=O)O)CC[C@]4(C)[C@H]3CC[C@]12C [7β-hydroxycholesteryl hydrogen phthalate]	–	–	3	30	no rat died	–	–
CC(C)CCC[C@@H](C)[C@H]1CC[C@H]2[C@@H]3C(O)C=C4C[C@@H](OC(=O)CCC(=O)O)CC[C@]4(C)[C@H]3CC[C@]12C (stereo partly shown) [Sodium 7-hydroxycholesteryl succinate, sodium 7-hydroxycholesteryl succinate]	–	–	–	28	no rat died	–	3
CC(C)CCC[C@@H](C)[C@H]1CC[C@H]2[C@@H]3[C@@H](O)C=C4C[C@@H](OC(=O)c5ccccc5C(=O)O)CC[C@]4(C)[C@H]3CC[C@]12C [Sodium 7β-hydroxycholesteryl phthalate]	–	–	–	31	no rat died	–	4
